Measured values reported in patent US8802597B2, “Herbicidal pyrimidines” (E I du Pont de Nemours and Company, priority 2003, dated 2014).

What was measured:
rice (Oryza sativa) = test: Test C flooded paddy test; type: in vivo; conditions: Flood, scale 0 to 100
Experimental: (§1) At the same time, plants selected from these crop and weed species and also winter barley (Hordeum vulgare), blackgrass (Alopecurus myosuroides), canarygrass (Phalaris minor), chickweed (Stellaria media), downy brome (Bromus tectorum), green foxtail (Setaria viridis), Italian ryegrass (Lolium multiflorum), wheat (Triticum aestivum), wild oat (Avena fatua) and windgrass (Apera spica-venti) were treated with postemergence applications of some of the test chemicals formulated in the same manner. Plants ranged in height from 2 to 18 cm (1- to 4-leaf stage) for postemergence treatments. Plant species in the flooded paddy test consisted of rice (Oryza sativa), umbrella sedge (Cyperus difformis), duck salad (Heteranthera limosa) and barnyardgrass (Echinochloa crus-galli) grown to the 2-leaf stage for testing. Treated plants and controls were maintained in a greenhouse for 12 to 14 days, after which time all species were compared to controls and visually evaluated. Plant response ratings, summarized in Table C, are based on a scale of 0 to 100 where 0 is no effect and 100 is complete control. A dash (-) response means no test result.

[1] = system: umbrella sedge (Cyperus difformis); test: Test C flooded paddy test; type: in vivo; conditions: Flood, scale 0 to 100
Experimental: as §1

[2] = system: duck salad (Heteranthera limosa); test: Test C flooded paddy test; type: in vivo; conditions: Flood, scale 0 to 100
Experimental: as §1

[3] = system: barnyardgrass (Echinochloa crus-galli); test: Test C flooded paddy test; type: in vivo; conditions: Flood
Experimental: as §1

[4] = system: water seeded rice seedlings (Oryza sativa cv. ‘Japonica-M202’); test: Test E flooded paddy water application; type: in vivo; conditions: Flood, 21 days, scale 0 to 100 (0 no effect, 100 complete control); for Plant response rating, Rice, Water Seeded: 16 g ai/ha
Outline: (§2)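 Weeds sown in sterilized Tama silt loam (2.6% organic matter), greenhouse 29.5/26.7° C, 16-h photoperiod; at 2.0–2.5-leaf stage pots flooded to 3 cm and compound added to paddy water. Visual rating vs untreated controls after 21 days, 0 (no effect) to 100 (complete control).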

[5] = system: ducksalad (Heteranthera limosa); test: Test E flooded paddy water application; type: in vivo; conditions: Flood, 21 days, scale 0 to 100 (0 no effect, 100 complete control); for Plant response rating, Ducksalad: 16 g ai/ha
Outline: as §2

[6] = system: late watergrass (Echinochloa oryzicola); test: Test E flooded paddy water application; type: in vivo; conditions: Flood, 21 days, scale 0 to 100 (0 no effect, 100 complete control); for Plant response rating, Watergrass, Late: 16 g ai/ha
Outline: as §2

[7] = system: smallflower umbrella sedge (Cyperus difformis); test: Test E flooded paddy water application; type: in vivo; conditions: Flood, 21 days, scale 0 to 100 (0 no effect, 100 complete control); for Plant response rating, Sedge, Umbrella: 16 g ai/ha
Outline: as §2

[8] = system: rice flatsedge (Cyperus iria); test: Test E flooded paddy water application; type: in vivo; conditions: Flood, 21 days, scale 0 to 100 (0 no effect, 100 complete control); for Plant response rating, Flatsedge, Rice: 16 g ai/ha
Outline: as §2

[9] = system: bearded (brdd.) sprangletop (Leptochloa fusca ssp. fascicularis); test: Test E flooded paddy water application; type: in vivo; conditions: Flood, 21 days, scale 0 to 100 (0 no effect, 100 complete control); for Plant response rating, Sprangletop, Brdd.: 16 g ai/ha
Outline: as §2

[10] = system: junglerice (Echinochloa colona); test: Test E flooded paddy water application; type: in vivo; conditions: Flood, 21 days, scale 0 to 100 (0 no effect, 100 complete control); for Plant response rating, Junglerice: 16 g ai/ha
Outline: as §2

[11] = system: barnyardgrass (Echinochloa crus-galli); test: Test E flooded paddy water application; type: in vivo; conditions: Flood, 21 days, scale 0 to 100 (0 no effect, 100 complete control)
Outline: as §2

[12] = system: transplanted rice seedlings (Oryza sativa cv. ‘Japonica-M202’); test: Test E flooded paddy water application; type: in vivo; conditions: Flood, 21 days, scale 0 to 100 (0 no effect, 100 complete control); for Plant response rating, Rice, Transplanted: 16 g ai/ha
Outline: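 Response scored visually on a 0–100 scale (100 = complete control) at 21 days against untreated pots. Treatment was into paddy water 3 cm deep over silt loam, with plants at the 2.0–2.5-leaf stage, grown under 16-h light at 29.5/26.7 °C day/night.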

CCOC(=O)c1nc(C(C)(C)C)nc(N)c1Br [Compound 36]
melting point: 69 to 70 °C

CCOC(=O)c1nc(-c2ccc(Cl)cc2)nc(N)c1Br [Compound 37]
Plant response rating, Rice (rice (Oryza sativa); 62 g ai/ha): 0
Plant response rating, Rice (rice (Oryza sativa); 125 g ai/ha): 0
Plant response rating, Rice (rice (Oryza sativa); 250 g ai/ha): 0
Plant response rating, Rice (rice (Oryza sativa); 500 g ai/ha): 0
Plant response rating, Sedge, Umbrella ([1]; 62 g ai/ha): 85
Plant response rating, Sedge, Umbrella ([1]; 125 g ai/ha): 85
Plant response rating, Sedge, Umbrella ([1]; 250 g ai/ha): 90
Plant response rating, Sedge, Umbrella ([1]; 500 g ai/ha): 95
Plant response rating, Ducksalad ([2]; 62 g ai/ha): 95
Plant response rating, Ducksalad ([2]; 125 g ai/ha): 95
Plant response rating, Ducksalad ([2]; 250 g ai/ha): 100
Plant response rating, Ducksalad ([2]; 500 g ai/ha): 100
Plant response rating, Barnyardgrass ([3]; 62 g ai/ha, scale 0 to 100): 0
Plant response rating, Barnyardgrass ([3]; 125 g ai/ha, scale 0 to 100): 0
Plant response rating, Barnyardgrass ([3]; 250 g ai/ha, scale 0 to 100): 0
Plant response rating, Barnyardgrass ([3]; 500 g ai/ha, scale 0 to 100 (0 no effect, 100 complete control)): 0
Rice, Water Seeded plant response rating ([4]; 32 g ai/ha): 0
Rice, Water Seeded plant response rating ([4]; 64 g ai/ha): 0
Rice, Water Seeded plant response rating ([4]; 125 g ai/ha): 0
Rice, Water Seeded plant response rating ([4]; 250 g ai/ha): 0
Plant response rating, Rice, Water Seeded [4]: 0
Ducksalad plant response rating ([5]; 32 g ai/ha): 100
Ducksalad plant response rating ([5]; 64 g ai/ha): 100
Ducksalad plant response rating ([5]; 125 g ai/ha): 100
Ducksalad plant response rating ([5]; 250 g ai/ha): 100
Plant response rating, Ducksalad [5]: 80
Watergrass, Late plant response rating ([6]; 32 g ai/ha): 0
Watergrass, Late plant response rating ([6]; 64 g ai/ha): 0
Watergrass, Late plant response rating ([6]; 125 g ai/ha): 0
Watergrass, Late plant response rating ([6]; 250 g ai/ha): 0
Plant response rating, Watergrass, Late [6]: 0
Sedge, Umbrella plant response rating ([7]; 32 g ai/ha): 50
Sedge, Umbrella plant response rating ([7]; 64 g ai/ha): 50
Sedge, Umbrella plant response rating ([7]; 125 g ai/ha): 65
Sedge, Umbrella plant response rating ([7]; 250 g ai/ha): 95
Plant response rating, Sedge, Umbrella [7]: 30
Flatsedge, Rice plant response rating ([8]; 32 g ai/ha): 0
Flatsedge, Rice plant response rating ([8]; 64 g ai/ha): 0
Flatsedge, Rice plant response rating ([8]; 125 g ai/ha): 75
Flatsedge, Rice plant response rating ([8]; 250 g ai/ha): 90
Plant response rating, Flatsedge, Rice [8]: 0
Sprangletop, Brdd. plant response rating ([9]; 32 g ai/ha): 0
Sprangletop, Brdd. plant response rating ([9]; 64 g ai/ha): 0
Sprangletop, Brdd. plant response rating ([9]; 125 g ai/ha): 0
Sprangletop, Brdd. plant response rating ([9]; 250 g ai/ha): 0
Plant response rating, Sprangletop, Brdd. [9]: 0
Junglerice plant response rating ([10]; 32 g ai/ha): 0
Junglerice plant response rating ([10]; 64 g ai/ha): 0
Junglerice plant response rating ([10]; 125 g ai/ha): 0
Junglerice plant response rating ([10]; 250 g ai/ha): 0
Plant response rating, Junglerice [10]: 0
Barnyardgrass plant response rating ([11]; 64 g ai/ha): 0
Barnyardgrass plant response rating ([11]; 125 g ai/ha): 0
Barnyardgrass plant response rating ([11]; 250 g ai/ha): 0
Plant response rating, Barnyardgrass ([11]; 16 g ai/ha): 0
Rice, Transplanted plant response rating ([12]; 32 g ai/ha): 0
Rice, Transplanted plant response rating ([12]; 64 g ai/ha): 0
Rice, Transplanted plant response rating ([12]; 125 g ai/ha): 0
Rice, Transplanted plant response rating ([12]; 250 g ai/ha): 0
Plant response rating, Rice, Transplanted [12]: 0

COC(=O)c1nc(-c2ccc(Cl)cc2)nc(N)c1Cl [Compound 58, methyl 6-amino-5-chloro-2-(4-chlorophenyl)-4-pyrimidinecarboxylate]
melting point: 215 to 218 °C
Rice, Water Seeded plant response rating ([4]; 32 g ai/ha): 0
Rice, Water Seeded plant response rating ([4]; 64 g ai/ha): 0
Rice, Water Seeded plant response rating ([4]; 125 g ai/ha): 0
Rice, Water Seeded plant response rating ([4]; 250 g ai/ha): 20
Plant response rating, Rice, Water Seeded [4]: 0
Ducksalad plant response rating ([5]; 32 g ai/ha): 100
Ducksalad plant response rating ([5]; 64 g ai/ha): 100
Ducksalad plant response rating ([5]; 125 g ai/ha): 100
Ducksalad plant response rating ([5]; 250 g ai/ha): 100
Plant response rating, Ducksalad [5]: 100
Watergrass, Late plant response rating ([6]; 32 g ai/ha): 0
Watergrass, Late plant response rating ([6]; 64 g ai/ha): 0
Watergrass, Late plant response rating ([6]; 125 g ai/ha): 0
Watergrass, Late plant response rating ([6]; 250 g ai/ha): 0
Plant response rating, Watergrass, Late [6]: 0
Sedge, Umbrella plant response rating ([7]; 32 g ai/ha): 95
Sedge, Umbrella plant response rating ([7]; 64 g ai/ha): 95
Sedge, Umbrella plant response rating ([7]; 125 g ai/ha): 95
Sedge, Umbrella plant response rating ([7]; 250 g ai/ha): 100
Plant response rating, Sedge, Umbrella [7]: 65
Flatsedge, Rice plant response rating ([8]; 32 g ai/ha): 100
Flatsedge, Rice plant response rating ([8]; 64 g ai/ha): 100
Flatsedge, Rice plant response rating ([8]; 125 g ai/ha): 100
Flatsedge, Rice plant response rating ([8]; 250 g ai/ha): 100
Plant response rating, Flatsedge, Rice [8]: 40
Sprangletop, Brdd. plant response rating ([9]; 32 g ai/ha): 40
Sprangletop, Brdd. plant response rating ([9]; 64 g ai/ha): 60
Sprangletop, Brdd. plant response rating ([9]; 125 g ai/ha): 60
Sprangletop, Brdd. plant response rating ([9]; 250 g ai/ha): 60
Plant response rating, Sprangletop, Brdd. [9]: 20
Junglerice plant response rating ([10]; 32 g ai/ha): 0
Junglerice plant response rating ([10]; 64 g ai/ha): 0
Junglerice plant response rating ([10]; 125 g ai/ha): 0
Junglerice plant response rating ([10]; 250 g ai/ha): 0
Plant response rating, Junglerice [10]: 0
Rice, Transplanted plant response rating ([12]; 32 g ai/ha): 0
Rice, Transplanted plant response rating ([12]; 64 g ai/ha): 0
Rice, Transplanted plant response rating ([12]; 125 g ai/ha): 0
Rice, Transplanted plant response rating ([12]; 250 g ai/ha): 0
Plant response rating, Rice, Transplanted [12]: 0
